According to US10940139B2, “Compounds that interact with the Ras superfamily for the treatment of cancers, inflammatory diseases, rasopathies, and fibrotic disease” (Shy Therapeutics LLC, priority 2017, dated 2021):

target: KRas G12D/Q61H double mutant (Homo sapiens (Human), UniProt P01116, G12D/Q61H); test: Ras GTP binding domain inhibition assay (labeled GTP); settings: 20 μM compound
In short: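 Inhibition of labeled GTP binding is measured on immobilized His-KRas protein in Tris buffer pH 7.5 with 1 mM MgCl2 and 1 mM DTT.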

Chain of KRas G12D/Q61H double mutant (P01116-2 other isoform, or with tags, fused parts or gaps G12D/Q61H): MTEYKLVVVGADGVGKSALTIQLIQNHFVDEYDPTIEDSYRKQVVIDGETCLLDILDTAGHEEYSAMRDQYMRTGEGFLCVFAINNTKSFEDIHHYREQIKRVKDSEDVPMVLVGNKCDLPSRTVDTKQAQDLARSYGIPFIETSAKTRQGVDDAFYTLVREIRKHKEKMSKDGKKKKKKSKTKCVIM

% Inhibition at 20 μM KRas G12D Q61H	Compound
B (B = 25-50% inhibition)	COc1cccc(OCCn2c(CN3CCCCC3)nc3ccccc32)c1 [drawing 3033]

same assay, conditions: 20 μM compound; KRas G12D/Q61H double mutant; read-out: % Inhibition at 20 μM of K-Ras mutant and wild-type protein, KRas G12D Q61H

inhibition at 20 µM [%]	Compound
25 to 50	CCCn1c(CNc2cccc(Cl)c2OCCOCC)nc2cc(S(=O)(=O)N(C)C)ccc21
25 to 50	O=C(c1ccoc1)N1CCC(Nc2cc(Cl)ccc2OCC2CCC2)CC1
25 to 50	Cc1c(C(=O)N(CCc2ccccc2)Cc2ccccc2)cccc1[N+](=O)[O-]
1 to 25	COc1cc(C(=O)NCC(c2cccs2)N(C)C)ccc1OCc1ccccc1Cl (stereo not drawn)
25 to 50	COc1ccc(-c2nc(CSc3nnc(CC(C)c4ccccc4)o3)cs2)cc1OC (stereo not drawn)
25 to 50	CC1CN(C(=O)CSc2nnc(Cc3cccc4ccccc34)n2C2CCCCC2)CC(C)O1 (stereo not drawn)
25 to 50	CCOc1ccc(S(=O)(=O)N(CC(=O)N2CCCc3ccccc32)Cc2ccco2)cc1
51 to 75	COC(=O)c1ccoc1COc1ccc(C(=O)c2ccc(F)cc2)cc1
1 to 25	Cc1n[nH]c(C2CN(C(=O)c3cnc(C)s3)CCO2)n1 (stereo not drawn)
25 to 50	COc1ccc(CN(C)Cc2ccc(OC)c(SC(F)(F)F)c2)cc1F
1 to 25	Cc1nc2ccccc2n1CCNC(=O)c1cc(S(=O)(=O)N(C)C)ccc1N1CCOCC1
1 to 25	COc1ccc(C)cc1-n1ccc(C(=O)N2CCCC2C(O)C(F)(F)F)n1 (stereo not drawn)
25 to 50	OC(CNC(Cc1ccccc1)c1nc(-c2ccccc2)no1)COCc1ccccc1Cl (stereo not drawn)
25 to 50	CCC(C)Oc1cc(-c2nc(C3CCCN3C(=O)OC(C)(C)C)no2)ccn1 (stereo not drawn)
25 to 50	COc1ccc(CN(C)C(=O)c2cc(Br)c(Br)s2)c(OC)c1
1 to 25	NCC(=O)NCc1ccc(Oc2ccc(F)c(F)c2)cc1C(F)(F)F
51 to 75	CCc1noc(CN(CCN(Cc2nc(CC)no2)c2ccccc2)c2ccccc2)n1
1 to 25	CCc1cc(N2CC(Cc3cc(OC)cc(OC)c3)C2)nc(-c2ccncc2)n1
25 to 50	CN(C)S(=O)(=O)c1ccc(CN2CCCCCC2/C=C/c2ccccc2)o1 (stereo not drawn)
25 to 50	C=CCOc1ccc(C(=O)c2ccccc2)c(OCC(=O)NC2(C#N)CCCC2)c1
1 to 25	OCCN(Cc1ccc(Cl)c(Cl)c1)c1ncc(Br)cn1
25 to 50	O=S(=O)(Cc1ccc(OC(F)(F)F)cc1)Nc1cccnc1-n1cccn1
25 to 50	O=C(NCC(F)(F)F)c1ccc(CN(Cc2cc(Cl)cc3c2OCCO3)C2CC2)cc1
51 to 75	CCCn1c(-c2cccc(C)c2)nnc1S(=O)(=O)Cc1csc(-c2cccc(OC)c2)n1

same assay, conditions: 20 μM compound; read-out: % Inhibition at 20 μM KRas G12D Q61H

inhibition at 20 µM [%]	Compound
25 to 50	CC(C(N)=O)N1CCOC(c2nc(-c3ccccc3)cs2)C1 (stereo not drawn)
25 to 50	O=C(c1cc(-c2ccccc2)nc2ccccc12)N1N=CCC1(O)C(F)(F)F (stereo not drawn)
25 to 50	COc1cc(F)ccc1N1CCN(C(=O)c2csc3c(O)nc(-c4ccccn4)nc23)CC1
1 to 25	CCOCCC1CCN(C(=O)c2csc3c(O)nc(N)nc23)CC1 [drawing 2660]
25 to 50	CCOC(=O)c1ccc(C(=O)NCCc2ccc(C(F)(F)F)cc2)nc1C
25 to 50	COc1ccc(OC)c(S(=O)(=O)N(Cc2ccccc2)Cc2ccccc2)c1
1 to 25	CCN(C(=O)c1ccc(COc2ccccc2F)o1)c1ccccc1C
1 to 25	Cc1cc(C2CCCN2c2cc(C(F)(F)F)nc3ncnn23)no1 (stereo not drawn)
25 to 50	COCCn1c(SCc2csc(-c3ccccc3)n2)nc2ccccc21
25 to 50	Nc1nc(-c2ccccn2)nn1C(=O)Cc1csc(-c2ccccc2)n1
25 to 50	O=C(CCc1ccc(F)cc1)Nc1nnc(-c2ccccn2)[nH]1
25 to 50	COC(=O)c1ccc2c(=O)[nH]c(-c3ccccn3)nc2c1
25 to 50	Cc1ccc(OCCSc2nnc(C(C)Oc3ccc(F)cc3)o2)cc1 (stereo not drawn)
25 to 50	O=c1[nH]c(-c2cc(OCC(F)F)ccn2)nc2cc(F)c(F)cc12
25 to 50	Nc1nc(-c2ccccn2)nn1C(=O)c1ccc(N2CCNC2=O)cc1
1 to 25	CS(=O)(=O)Nc1nc(-c2ccccn2)nc2scc(-c3ccccc3)c12
25 to 50	Cc1nc(-c2ccccn2)nc(NCCS(C)(=O)=O)c1C
1 to 25	CC(=O)Nc1ccc(C(F)(F)F)cc1NCc1nc(C)no1

inhibition at 20 µM [%]	Compound
1 to 25	COc1cnc(CNC(=O)Cn2cnc3nc(-c4ccccn4)nc(N4CCOCC4)c32)[nH]c1=O [drawing 2824]
25 to 50	COc1ccccc1OCc1ccc(C(=O)N2CCc3ccccc32)o1
25 to 50	O=S(=O)(c1ccccc1)N(CCOc1cccc(Cl)c1)c1nccs1
25 to 50	Cc1cc(C)n(CCCNC(=O)c2cc(S(=O)(=O)N3CCCCC3)ccc2N2CCOCC2)n1
25 to 50	CCNC(=O)CNc1nc(-c2ccccn2)nc(C)c1C
1 to 25	O=c1[nH]c(-c2cnccn2)nc2ccccc12
1 to 25	Cc1noc(CN2CCOC(c3nc(-c4ccccc4)cs3)C2)n1 (stereo not drawn)
1 to 25	Cc1cccc(CN(Cc2ccccn2)Cc2ncc(C(C)(C)C)o2)c1
1 to 25	CC(C)CN1CC(C(=O)Nc2nc(-c3ccccn3)cs2)CC1=O (stereo not drawn)
25 to 50	O=C(c1cccc(S(=O)(=O)N2CCOCC2)c1)N1N=C(c2ccccc2)CC1(O)C(F)(F)F (stereo not drawn)
1 to 25	CN(Cc1nc2ccccc2n1C)C(=O)c1cccc(Cl)n1
25 to 50	CCc1cc2c(=O)[nH]c(-c3ccccn3)nc2s1
1 to 25	COC(=O)c1csc2c(O)nc(-c3ccccn3)nc12 [drawing 2823]
25 to 50	Cn1ccnc1COc1ccc(C(=O)Nc2nnc(-c3ccccn3)[nH]2)cc1
1 to 25	CN(C)C1CN(C(=O)Nc2nc(-c3cccnc3)cs2)C1
1 to 25	Nc1nc(O)c2scc(C(=O)N3CCc4ccccc4CC3)c2n1 [drawing 2671]
25 to 50	CN(Cc1ccc(C(F)(F)F)cc1)Cc1cc2c(cc1O)CCC2
25 to 50	CCc1noc(CN(C)c2nc(-c3ccccn3)nc3c2CCC3)n1

same assay, conditions: 20 μM; read-out: KRas G12D Q61H % Inh.

inhibition at 20 µM [%]	Compound
51 to 75	CCN(CC)S(=O)(=O)c1cc(C)c(C)c(NC(=O)CCc2c(C)nc(-c3ccccn3)nc2O)c1 [drawing 2602]
51 to 75	CCn1nnc2cc(C(=O)Nc3nnc(-c4ccccn4)[nH]3)ccc21 [drawing 2507]
51 to 75	CC1CCc2sc(C(=O)Nc3nnc(-c4ccccn4)[nH]3)cc2C1 (stereo not drawn) [drawing 2531]
76 to 100	O=C(COc1ccccc1)N1CCCc2c(O)nc(-c3ccccn3)nc21 [drawing 2638]
51 to 75	CC(C)c1nc(CC(=O)Nc2nnc(-c3ccccn3)[nH]2)cs1 [drawing 2480]
51 to 75	CN(CC(=O)Nc1nnc(-c2ccccn2)[nH]1)Cc1ccccc1 [drawing 2537]
25 to 50	CS(=O)(=O)N1CCCc2cc(C(=O)N3CCCc4c(O)nc(-c5ccccn5)nc43)ccc21 [drawing 2645]
25 to 50	Cc1c(C(=O)N(C)C)sc2[nH]c(-c3ccccn3)nc(=O)c12 [drawing 2590]
51 to 75	O=C(Nc1nc(-c2ccccn2)cs1)c1ccc(F)cc1 [drawing 2579]
51 to 75	O=C(Nc1nnc(-c2ccccn2)[nH]1)C1CCCN(c2cnccn2)C1 (stereo not drawn) [drawing 2527]
51 to 75	CCCCSc1nc(-c2cccs2)c(C(=O)C(F)(F)F)cc1C#N [drawing 2618]
